Data as given in patent publication US11638702B2, “Glyceryl 3-hydroxybutyrates for traumatic brain injury” (NeuroEnerygy Ventures, Inc., priority 2017, dated 2023).

Tests used:
[1] = system: traumatic brain injury (TBI) patients; assay: Oral glyceryl tris(3-hydroxybutyrate) with standard non-restricted diet in individual TBI patients (case examples); assay type: in vivo, human; settings: for Clinical status at follow-up: day 7 of regimen
Protocol: A 60 kg person presents with TBI due to a minor car accident. On initial examination, within 1 hour of the accident, moderate TBI is determined by EMT at the scene, on the basis disorientation and of the Glasgow Coma Scale (9-13). The patient is conscious, is hyperglycemic and able to orally ingest the ester. The patient is started on 0.5 g/kg/day glyceryl tris(3-hydroxybutyrate) orally in 3 divided doses (i.e., 10 g per serving 3 times a day). The patient is transported to a medical facility and allowed to ingest a standard diet lunch, having no glucogenic caloric restriction. […] The patient completes the regimen.
A 70 kg (boxer) presents with a sports injury concussion after having a history of 3 similar concussions over the past year. The past concussions are treated by standard medical practice without the use of ketogenic diet, starvation, or the esters of use in the present invention. The most recent concussive injury occurs 2 hours before the patient being brought into a hospital for treatment. The patient is immediately examined and determined to be hyperglycemic and to have a moderate concussive injury (on the basis of short term loss of consciousness, their lingering disorientation, and a Glasgow Coma Scale score of 9-13). The patient is started on 2.0 g/kg/day glyceryl tris(3-hydroxybutyrate) in three divided dose (i.e.. 46.7 g per serving 3 times a day) and permitted an ordinary standard oral diet not having glucogenic caloric restrictions for a 70 kg person. Treatment continues for 3 days.
The patient in Example 3, knowing that further concussive incidents are likely requests advice as to minimizing the effects of further concussive incidents. The patient is told to restart the glyceryl tris(3-hydroxybutyrate) regimen at least one meal period before partaking in the activity likely to result in a concussive injury. The patient has such serving at a 5 PM dinner and is in a match at 7 PM. The patient does in fact suffer a further TBI which once again is upon examination at the scene is determined to be a moderate TBI, however, the patient is euglycemic. On transport to a medical facility, the patient is re-examined and confirm that they have suffered another moderate TBI. The patient is started on 2.0 g/kg/day glyceryl tris(3-hydroxybutyrate) in three divided doses 46.7 g per serving 3 times a day) and permitted an ordinary standard oral diet not having glucogenic caloric restrictions for a 70 kg person. […] The patient is advised to continue with the glyceryl tris(3-hydroxybutyrate) regimen as in Example 3 for 6 days and return for re-evaluation. The patient maintains the regimen for 3 days instead of the recommended 6 and reports no adverse or lingering effects from the TBI.
The patients in Examples 2, 4, and 5 on re-evaluation are immediately started on the regimens referred to in Examples 1, 3, and 3 respectively for 7 days, and directed to return for re-evaluation on the 7th day of the newly started regimen. […] However, the improvement is not as complete as the patients in Examples 1 or 3.
A 30 kg child is brought to the emergency room with moderate to severe TBI (as per the Modified Glasgow Coma Scale) due to a playground fall, is hyperglycemic, is unconscious, is intubated, and begun on a regimen of 30 g twice daily of glyceryl tris(3-hydroxybutyrate) and further fed standard normal enteral diet. The regimen is continued for 7 days and re-evaluated at that time. […] The treatment is continued, with re-evaluation set for 7 days later.

[2] = system: traumatic brain injury (TBI) patients; assay: Group comparisons of TBI patients / military personnel given glyceryl tris(3-hydroxybutyrate) versus matched patients; assay type: in vivo, human
Protocol: The patients are followed up approximately 6 months, after the TBI.
Military personnel having closed TBIs due to vehicular accidents or IEDs or other battlefield causes are evaluated for the severity of their TBIs and, where glyceryl tris(3-hydroxybutyrate) is available for administration, are started on a regimen of […] in 2 or 3 divided doses for 7 days (which regimen is generally started within 2 or 3 hours of injury) and then re-evaluated at day 7 to assess whether further treatment for the TBI is warranted. These are compared with comparably injured military personnel where access to the glyceryl tris(3-hydroxybutyrate) was not available for administration within the first week after injury.
In light of Example 10, combat troops and medics associated therewith are provided with glyceryl tris(3-hydroxybutyrate) to take into the field for use in triage in the case of mild-moderate closed TBI situations.
In light of Examples 10 and 11, combat troops are routinely given a morning dose of glyceryl tris(3-hydroxybutyrate) while in combat zones in case they suffer a mild to moderate non-penetrating closed TBI. For those troops that do suffer such TBIs within 12 hours of administration, their recovery, both acutely and longer term, is improved as compared to those only receiving the glyceryl tris(3-hydroxybutyrate) administration upon injury, after being matched for injury severity. Similar comparatives between those getting variously identical regimens of glyceryl tris(3-hydroxybutyrate) post-injury other than the single prophylactic dose prior to injury, with those receiving the preinjury dose faring better than those not receiving it, and further those whose injury is closer in time to the administration (1-2 hours post administration) faring better than those being injured further in time form the administration (10-12 hours post-administration).

**Q.** Which Disorientation ([1]; Example 1: 60 kg female, moderate TBI (Glasgow Coma Scale 9-13), 0.5 g/kg/day orally in 3 divided doses, standard diet, after 2 days) does the source give for `CC(O)CC(=O)OCC(COC(=O)CC(C)O)OC(=O)CC(C)O` (stereo not drawn) [glyceryl tris(3-hydroxybutyrate)] here?
**A.** Its Disorientation is “recovered from their disorientation”.

**Q.** And the “Clinical status at follow-up” value ([1]; Example 1: 60 kg female, moderate TBI, 0.5 g/kg/day orally in 3 divided doses, normal meals)?
**A.** Its value is “fully recovered”.

**Q.** And the Glycemic status ([1]; Example 1: patient hyperglycemic at presentation, 0.5 g/kg/day, from shortly after ester administration through end of treatment and beyond)?
**A.** The Glycemic status was “euglycemic”.

**Q.** What about the “Clinical status at follow-up” value ([1]; Example 3: 70 kg male boxer, 2.0 g/kg/day in three divided doses, standard oral diet) of the same compound?
**A.** Its value is “fully recovered”.

**Q.** What about the Glycemic status ([1]; Example 3: patient hyperglycemic at presentation, 2.0 g/kg/day, from shortly after ester administration through end of treatment) of the same compound?
**A.** Its Glycemic status is “euglycemic”.

**Q.** What about the “Adverse effects of the TBI the next day” value ([1]; Example 6: pre-injury serving, then 2.0 g/kg/day in three divided doses, the next day) of the same compound?
**A.** The value was “no adverse effects”.

**Q.** What about the Symptoms on reexamination ([1]; Example 6: regimen maintained for 3 days instead of the recommended 6) of the same compound?
**A.** The Symptoms on reexamination was “no symptoms are seen”.

**Q.** And the “Glycemic status at examination after further TBI” value ([1]; Example 6: serving taken at 5 PM dinner before a 7 PM match (pre-injury dose), moderate TBI)?
**A.** The value was “euglycemic”.

**Q.** And the “Clinical status at end of treatment” value ([1]; Example 8: 30 kg child, 30 g twice daily, after an additional 3 days of treatment)?
**A.** The value was “fully recovered”.

**Q.** What about the Consciousness ([1]; Example 8: 30 kg child, 30 g twice daily, day 4 of continued treatment) of the same compound?
**A.** Its Consciousness is “regains consciousness”.

**Q.** And the Clinical symptoms ([1]; Example 8: 30 kg child, moderate to severe TBI, unconscious, intubated, 30 g twice daily, standard enteral diet, after 7 days)?
**A.** The Clinical symptoms was “show improvement, but are not yet in normal ranges”.

**Q.** What about the “Long term effects of TBI” value ([2]; Example 9: moderate TBI, given with normal meals 2 or 3 times a day for one or two weeks, follow-up approximately 6 months after TBI, vs ketogenic diet or starvation) of the same compound?
**A.** Its value is “minimal, if not non-existent”.

**Q.** What about the “Recovery from acute symptoms and long-term post-concussive syndrome symptoms vs those not receiving it” value ([2]; Example 10: military personnel, closed TBI, 0.5 mg/kg/day to 2.0 mg/kg/day in 2 or 3 divided doses for 7 days, started within 2 or 3 hours of injury) of the same compound?
**A.** Its value is “fare much better”.

**Q.** And the “Outcome vs treatment as in Example 10” value ([2]; Example 11: mild-moderate closed TBI, given within minutes of suffering the TBI)?
**A.** The value was “fare even better”.

**Q.** What about the “Recovery, acutely and longer term, vs administration only upon injury” value ([2]; Example 12: combat troops, morning prophylactic dose, TBI within 12 hours of administration, matched for injury severity) of the same compound?
**A.** Its value is “improved”.
